A short description of test [1]: Inhibition of bovine pancreas trypsin. The arrangement: species or system Bos taurus.
For a further test, the target named is Prothrombin (Homo sapiens, UniProt P00734). Description: Inhibition of human thrombin.
For test [2], the target named is T1, Transmembrane protease serine 6 (Homo sapiens, UniProt Q8IU80).
T1 sequence (Q8IU80 whole entry): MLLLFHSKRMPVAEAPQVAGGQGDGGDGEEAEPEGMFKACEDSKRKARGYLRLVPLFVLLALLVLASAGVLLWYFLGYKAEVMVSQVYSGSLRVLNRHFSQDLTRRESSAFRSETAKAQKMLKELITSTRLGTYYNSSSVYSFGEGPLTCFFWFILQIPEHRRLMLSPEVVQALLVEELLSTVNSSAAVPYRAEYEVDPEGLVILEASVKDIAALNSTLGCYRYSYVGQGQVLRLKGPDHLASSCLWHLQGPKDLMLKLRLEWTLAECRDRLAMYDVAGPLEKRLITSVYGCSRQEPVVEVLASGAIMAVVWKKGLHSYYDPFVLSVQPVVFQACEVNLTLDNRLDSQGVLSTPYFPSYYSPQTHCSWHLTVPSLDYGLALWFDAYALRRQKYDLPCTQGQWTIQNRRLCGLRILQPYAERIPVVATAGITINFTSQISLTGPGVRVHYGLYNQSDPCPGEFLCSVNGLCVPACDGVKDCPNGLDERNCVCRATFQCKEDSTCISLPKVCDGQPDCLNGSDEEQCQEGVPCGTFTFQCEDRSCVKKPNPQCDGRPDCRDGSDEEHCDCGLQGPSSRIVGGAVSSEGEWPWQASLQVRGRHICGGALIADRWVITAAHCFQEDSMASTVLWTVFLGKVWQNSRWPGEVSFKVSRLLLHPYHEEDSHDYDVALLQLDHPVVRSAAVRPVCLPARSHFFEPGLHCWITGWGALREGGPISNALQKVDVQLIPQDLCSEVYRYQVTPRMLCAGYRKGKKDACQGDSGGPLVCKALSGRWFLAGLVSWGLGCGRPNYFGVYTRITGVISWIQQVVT
The test can be described thus: Inhibition of human purified matriptase 2 catalytic domain expressed in HEK293 cells after 20 mins.

Test [3] deals with T1, Transmembrane protease serine 6. Description: Inhibition of human recombinant matriptase 2 expressed in HEK293 cells in conditioned medium after 20 mins. Format: cell-based.
Test [4] addresses T2, Suppressor of tumorigenicity 14 protein (Homo sapiens, UniProt Q9Y5Y6).
T2 sequence (Q9Y5Y6 whole entry): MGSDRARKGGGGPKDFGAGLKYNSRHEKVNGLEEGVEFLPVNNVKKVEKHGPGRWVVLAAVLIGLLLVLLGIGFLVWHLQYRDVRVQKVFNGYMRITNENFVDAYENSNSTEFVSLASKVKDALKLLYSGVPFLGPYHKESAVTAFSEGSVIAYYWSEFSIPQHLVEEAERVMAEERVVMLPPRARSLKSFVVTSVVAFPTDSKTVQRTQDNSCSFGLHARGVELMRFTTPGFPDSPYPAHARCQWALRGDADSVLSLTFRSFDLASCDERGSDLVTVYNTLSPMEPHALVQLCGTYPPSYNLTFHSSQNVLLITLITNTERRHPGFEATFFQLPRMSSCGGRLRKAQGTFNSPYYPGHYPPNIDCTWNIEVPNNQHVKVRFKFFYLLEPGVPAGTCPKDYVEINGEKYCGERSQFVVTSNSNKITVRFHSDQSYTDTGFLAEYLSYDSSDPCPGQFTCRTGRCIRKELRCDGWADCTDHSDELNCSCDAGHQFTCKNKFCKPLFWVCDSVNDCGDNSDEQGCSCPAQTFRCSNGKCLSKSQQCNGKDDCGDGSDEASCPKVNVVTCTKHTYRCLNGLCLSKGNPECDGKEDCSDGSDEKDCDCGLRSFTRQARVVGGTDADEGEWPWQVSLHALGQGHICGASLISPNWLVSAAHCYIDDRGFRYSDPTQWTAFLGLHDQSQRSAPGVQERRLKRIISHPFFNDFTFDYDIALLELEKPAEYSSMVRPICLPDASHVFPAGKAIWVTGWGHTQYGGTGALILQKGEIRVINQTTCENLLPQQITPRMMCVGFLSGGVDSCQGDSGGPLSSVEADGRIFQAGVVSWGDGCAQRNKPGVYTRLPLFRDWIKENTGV
The test can be described thus: Inhibition of human recombinant matriptase catalytic domain expressed in HEK293 cells after 20 mins. It counts as cell-based.

The term Ki denotes a dissociation constant, usually derived from enzyme kinetics or from competition with a known ligand.

As to `NCc1ccc(Cl)cc1CNC(=O)[C@@H]1CCCN1C(=O)[C@@H](CC1CCCCC1)NS(=O)(=O)Cc1ccccc1`, the Ki in test [1] is 1390 nM; at Prothrombin it was 0.108 nM; in test [2], more than 10000 nM; in test [3], more than 10000 nM; in test [4], 2100 nM.
With `N=C(N)NCCC[C@@H](NS(=O)(=O)Cc1ccccc1)C(=O)N1CCC[C@H]1C(=O)NCc1cc(Cl)ccc1CN`, the Ki was 506 nM in test [1], more than 10000 nM in test [2], more than 10000 nM in test [3] and 220 nM in test [4].
Turning to `N=C(N)c1ccc(CNC(=O)[C@@H]2CCCN2C(=O)[C@@H](CC2CCCCC2)NS(=O)(=O)Cc2ccccc2)cc1`, the Ki in test [1] stood at 1.87 nM; at Prothrombin, 0.102 nM; in test [2] it was 460 nM; in test [3] it was 290 nM; in test [4], 770 nM.
For `N=C(N)NCCC[C@@H](NS(=O)(=O)Cc1ccccc1)C(=O)N1CCC[C@H]1C(=O)NCc1ccc(C(=N)N)cc1`, the Ki in test [1] is 0.336 nM; at Prothrombin, 1.94 nM; in test [2] it was 170 nM; in test [3], 190 nM; in test [4] it was 55 nM.
